In patent publication US4820694A, “Modifications of 3-O-demethylmycinose in macrocin and lactenocin” (priority 1986, dated 1989):
In brackets after ≈: the same amount, converted by molar mass. Like-named read-outs stand apart in the source and are kept apart here.

Key:
[1] = test system: Pasteurella hemolytica 22C; assay: broth-dilution microtiter MIC test; type: cell-based; conditions: Pasteurella, 22C
Protocol: (§1) The MIC's in Table III were determined by standard agar-dilution assays. The MIC's in Table IV were obtained using conventional brothdilution microtiter tests.

[2] = test system: Pasteurella multocida 22A; assay: broth-dilution microtiter MIC test; type: cell-based; conditions: Pasteurella multocida, 22A
Protocol: as §1

[3] = test system: Pasteurella hemolytica 41D; assay: broth-dilution microtiter MIC test; type: cell-based; conditions: Pasteurella, 41D
Protocol: as §1

[4] = test system: Mycoplasma gallisepticum 29C; assay: broth-dilution microtiter MIC test; type: cell-based; conditions: Mycoplasmoides gallisepticum, 29C
Protocol: as §1

[5] = test system: Mycoplasma gallisepticum 36H; assay: broth-dilution microtiter MIC test; type: cell-based; conditions: Mycoplasmoides gallisepticum, 36H
Protocol: as §1

[6] = test system: Mycoplasma hyopneumoniae S5972; assay: broth-dilution microtiter MIC test; type: cell-based; conditions: Mesomycoplasma hyopneumoniae, S5972
Protocol: as §1

[7] = test system: Pasteurella multocida 17E; assay: broth-dilution microtiter MIC test; type: cell-based; conditions: Pasteurella multocida, 17E
Protocol: as §1

[8] = test system: Pasteurella hemolytica 23C; assay: broth-dilution microtiter MIC test; type: cell-based; conditions: Pasteurella, 23C
Protocol: as §1

[9] = test system: Mycoplasma gallisepticum 15E; assay: broth-dilution microtiter MIC test; type: cell-based; conditions: Mycoplasmoides gallisepticum, 15E
Protocol: as §1

Mycoplasma hyorhinis 29E = assay: broth-dilution microtiter MIC test; type: cell-based; conditions: Mycoplasma, 29E
Protocol: as §1

[10] = test system: Bordetella bronchiseptica; assay: broth-dilution microtiter MIC test; type: cell-based; conditions: Bordetella bronchiseptica; broth-dilution microtiter; read-out: MIC
Protocol: as §1

[11] = test system: Pasteurella multocida 60A; assay: broth-dilution microtiter MIC test; type: cell-based; conditions: Pasteurella multocida, 60A
Protocol: as §1

[12] = test system: Pasteurella multocida 40G; assay: broth-dilution microtiter MIC test; type: cell-based; conditions: Pasteurella multocida, 40G
Protocol: as §1

[13] = test system: Staphylococcus aureus 19C; assay: broth-dilution microtiter MIC test; type: cell-based; conditions: Staphylococcus aureus, 19C
Protocol: as §1

Mycoplasma synoviae 40A = assay: broth-dilution microtiter MIC test; type: cell-based; conditions: Mycoplasmopsis synoviae, 40A
Protocol: as §1

[14] = test system: Staphylococcus aureus S13E; assay: microbe, parasite or virus in culture; type: cell-based; conditions: Staphylococcus aureus, S13E
Protocol: as §1

[15] = test system: Streptococcus pneumoniae Park I; assay: microbe, parasite or virus in culture; type: cell-based; conditions: Streptococcus pneumoniae
Protocol: as §1

[16] = test system: Streptococcus pyogenes C203; assay: protection of mice experimentally infected with S. pyogenes C203; type: in vivo; conditions: mice, mg/kg × 2, doses given 1 and 4 hours postinfection, read-out: ED50
Summary of the method: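 Activity is given as ED50, the mg/kg dose (×2) protecting half of the mice infected with S. pyogenes C203. Compound was dosed 1 and 4 h after infection.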

[17] = test system: Staphylococcus aureus X1.1; assay: standard agar-dilution MIC assay; type: cell-based; conditions: Staphylococcus aureus, X1.1
Protocol: as §1

[18] = test system: Pseudomonas aeruginosa X239; assay: standard agar-dilution MIC assay; type: cell-based; conditions: Pseudomonas aeruginosa, X239; agar-dilution; read-out: MIC
Protocol: as §1

[19] = test system: Streptococcus Group D X66; assay: standard agar-dilution MIC assay; type: cell-based; conditions: read-out: MIC
Protocol: as §1

[20] = test system: Streptococcus Group D 2041; assay: standard agar-dilution MIC assay; type: cell-based; conditions: GROUPD2041
Protocol: as §1

[21] = test system: Streptococcus pyogenes C203; assay: standard agar-dilution MIC assay; type: cell-based; conditions: Streptococcus pyogenes, C203
Protocol: as §1

[22] = test system: Staphylococcus aureus V41; assay: standard agar-dilution MIC assay; type: cell-based; conditions: Staphylococcus aureus, V41
Protocol: as §1

[23] = test system: Staphylococcus epidermidis EPI1; assay: standard agar-dilution MIC assay; type: cell-based; conditions: Staphylococcus epidermidis, EPI1
Protocol: as §1

[24] = test system: Klebsiella pneumoniae X68; assay: standard agar-dilution MIC assay; type: cell-based; conditions: Klebsiella pneumoniae, X68; agar-dilution; read-out: MIC
Protocol: as §1

[25] = test system: Haemophilus influenzae C.L.; assay: standard agar-dilution MIC assay; type: cell-based; conditions: Haemophilus influenzae
Protocol: as §1

[26] = test system: Haemophilus influenzae 76; assay: standard agar-dilution MIC assay; type: cell-based; conditions: Haemophilus influenzae, 76
Protocol: as §1

[27] = test system: Staphylococcus aureus X400; assay: standard agar-dilution MIC assay; type: cell-based; conditions: Staphylococcus aureus, X400
Protocol: as §1

Escherichia coli EC14 = assay: standard agar-dilution MIC assay; type: cell-based; conditions: agar-dilution, read-out: MIC
Protocol: as §1

[28] = test system: Staphylococcus epidermidis 222; assay: standard agar-dilution MIC assay; type: cell-based; conditions: Staphylococcus epidermidis, 222
Protocol: as §1

[29] = test system: Pasteurella multocida 68C; assay: broth-dilution microtiter MIC test; type: cell-based; conditions: Pasteurella multocida, 68C
Protocol: as §1

Streptococcus sp. 19F = assay: broth-dilution microtiter MIC test; type: cell-based; conditions: Streptococcus, SP.19F
Protocol: as §1

[30] = broth-dilution microtiter, read-out: MIC

`CCC1OC(=O)CC(O)C(C)C(OC2OC(C)C(O)C(N(C)C)C2O)C(CC=O)CC(C)C(=O)C=CC(C)=CC1COC1OC(C)C2OC(C)(C)OC2C1OC` (stereo not shown) [Compound 55, 3",4"-Isopropylidene Derivative of Lactenocin] was tested, and the MIC [1] was 50 µg/mL (≈ 62.7 µM), the MIC [2] was 25 µg/mL (≈ 31.3 µM) and the MIC [3] was 50 µg/mL (≈ 62.7 µM). The MIC [4] was 0.39 µg/mL (≈ 0.489 µM), the MIC [5, 30] was over 50 µg/mL and the MIC [6] was 0.78 µg/mL (≈ 0.977 µM). The MIC [7] was 25 µg/mL (≈ 31.3 µM), the MIC [8] was 50 µg/mL (≈ 62.7 µM) and the MIC [9, 30] was over 50 µg/mL. The MIC (Mycoplasma hyorhinis 29E) was 50 µg/mL (≈ 62.7 µM), the MIC [10] was over 50 µg/mL and the MIC [11] was 50 µg/mL (≈ 62.7 µM). It also gave an MIC [12] of 25 µg/mL (≈ 31.3 µM), an MIC [13] of 3.12 µg/mL (≈ 3.91 µM) and an MIC (Mycoplasma synoviae 40A) of 3.12 µg/mL (≈ 3.91 µM). The MIC [14] was 2 µg/mL (≈ 2.51 µM), the MIC [15] was 8 µg/mL (≈ 10 µM) and the ED50 ([16]; C203, Oral) was over 100 mg/kg. It also gave an ED50 ([16]; C203, sc, Subcutaneous) of over 10 mg/kg, an MIC [17] of 2 µg/mL (≈ 2.51 µM) and an MIC [18] of over 128 µg/mL. It also gave an MIC [19] of 32 µg/mL (≈ 40.1 µM), an MIC [20] of 16 µg/mL (≈ 20.1 µM) and an MIC [21] of 1 µg/mL (≈ 1.25 µM). The MIC [22] was 2 µg/mL (≈ 2.51 µM), the MIC [23] was 2 µg/mL (≈ 2.51 µM) and the MIC [24] was over 128 µg/mL. It also gave an MIC [25] of 16 µg/mL (≈ 20.1 µM), an MIC [26] of 16 µg/mL (≈ 20.1 µM) and an MIC [27] of 4 µg/mL (≈ 5.01 µM). It also gave an MIC (Escherichia coli EC14) of over 128 µg/mL and an MIC [28] of 1 µg/mL (≈ 1.25 µM).

Work on `CCC1OC(=O)CC(O)C(C)C(OC2OC(C)C(O)C(N(C)C)C2O)C(CCOc2ccccc2)CC(C)C(=O)C=CC(C)=CC1COC1OC(C)C2OC(=O)OC2C1OC` (stereo not shown) [Compound 53, 20-DH-20-O-Phenyl-lactenocin 3",4"-Carbonate] yielded an MIC [1] of 50 µg/mL (≈ 58 µM), an MIC [2] of 50 µg/mL (≈ 58 µM) and an MIC [3] of 50 µg/mL (≈ 58 µM). For the same molecule, the MIC [4] was 0.195 µg/mL (≈ 0.226 µM), the MIC [5] was 50 µg/mL (≈ 58 µM) and the MIC [6] was 3.12 µg/mL (≈ 3.62 µM). It also gave an MIC [7] of 25 µg/mL (≈ 29 µM), an MIC [8] of 50 µg/mL (≈ 58 µM) and an MIC [9] of 50 µg/mL (≈ 58 µM). It also gave an MIC (Mycoplasma hyorhinis 29E) of 25 µg/mL (≈ 29 µM), an MIC [10] of over 50 µg/mL and an MIC [11] of 25 µg/mL (≈ 29 µM). For the same molecule, the MIC [29] was 25 µg/mL (≈ 29 µM), the MIC (Streptococcus sp. 19F) was 3.12 µg/mL (≈ 3.62 µM) and the MIC [12] was 50 µg/mL (≈ 58 µM). It also gave an MIC [13] of 0.78 µg/mL (≈ 0.905 µM), an MIC (Mycoplasma synoviae 40A) of 1.56 µg/mL (≈ 1.81 µM) and an MIC [14] of 1 µg/mL (≈ 1.16 µM). The MIC [15] was 2 µg/mL (≈ 2.32 µM), the ED50 ([16]; C203, Oral) was 18.7 mg/kg and the ED50 ([16]; C203, sc, Subcutaneous) was 6.1 mg/kg. The MIC [17] was 1 µg/mL (≈ 1.16 µM), the MIC [18] was over 128 µg/mL and the MIC [19] was 8 µg/mL (≈ 9.28 µM). The MIC [20] was 8 µg/mL (≈ 9.28 µM), the MIC [21] was 0.5 µg/mL (≈ 0.58 µM) and the MIC [22] was 1 µg/mL (≈ 1.16 µM). It also gave an MIC [23] of 1 µg/mL (≈ 1.16 µM), an MIC [24] of over 128 µg/mL and an MIC [25] of 64 µg/mL (≈ 74.2 µM). For the same molecule, the MIC [26] was 32 µg/mL (≈ 37.1 µM), the MIC [27] was 1 µg/mL (≈ 1.16 µM) and the MIC (Escherichia coli EC14) was over 128 µg/mL. The MIC [28] was 0.5 µg/mL (≈ 0.58 µM).

`CCC1OC(=O)CC(O)C(C)C(OC2OC(C)C(OC3CC(C)(O)C(O)C(C)O3)C(N(C)C)C2OC(C)=O)C(CC=O)CC(C)C(=O)C=CC(C)=CC1COC1OC(C)C2OC(=O)OC2C1OC` (stereo not shown) [Compound 48] showed an MIC [1, 30] of over 50 µg/mL, an MIC [2] of 50 µg/mL (≈ 51.5 µM) and an MIC [3] of 50 µg/mL (≈ 51.5 µM). It also gave an MIC [4] of 0.195 µg/mL (≈ 0.201 µM), an MIC [5] of 50 µg/mL (≈ 51.5 µM) and an MIC [6, 30] of 0.097 µg/mL (≈ 0.1 µM). For the same molecule, the MIC ([7]; broth-dilution microtiter, Bovine isolate, read-out: MIC) was 12.5 µg/mL (≈ 12.9 µM), the MIC [8] was 50 µg/mL (≈ 51.5 µM) and the MIC [9, 30] was 12.5 µg/mL (≈ 12.9 µM). The MIC (Mycoplasma hyorhinis 29E; [30]) was 1.56 µg/mL (≈ 1.61 µM), the MIC [10] was over 50 µg/mL and the MIC ([11]; broth-dilution microtiter, Avian isolate, read-out: MIC) was 25 µg/mL (≈ 25.8 µM). It also gave an MIC [29, 30] of 12.5 µg/mL (≈ 12.9 µM), an MIC (Streptococcus sp. 19F) of 0.39 µg/mL (≈ 0.402 µM) and an MIC [12, 30] of 25 µg/mL (≈ 25.8 µM). It also gave an MIC [13, 30] of 1.56 µg/mL (≈ 1.61 µM), an MIC (Mycoplasma synoviae 40A; [30]) of 0.097 µg/mL (≈ 0.1 µM) and an MIC [14] of 1 µg/mL (≈ 1.03 µM). For the same molecule, the MIC ([15]; agar-dilution, read-out: MIC) was 0.12 µg/mL (≈ 0.124 µM), the ED50 ([16]; C203, Oral) was 28 mg/kg and the ED50 ([16]; C203, sc, Subcutaneous) was 1.53 mg/kg. The MIC [17] was 1 µg/mL (≈ 1.03 µM), the MIC [18] was over 128 µg/mL and the MIC [19] was 2 µg/mL (≈ 2.06 µM). For the same molecule, the MIC [20] was 2 µg/mL (≈ 2.06 µM), the MIC ([21]; agar-dilution, read-out: MIC) was 0.5 µg/mL (≈ 0.515 µM) and the MIC [22] was 1 µg/mL (≈ 1.03 µM). It also gave an MIC [23] of 1 µg/mL (≈ 1.03 µM), an MIC [24] of over 128 µg/mL and an MIC [25] of 32 µg/mL (≈ 33 µM). It also gave an MIC ([26]; agar-dilution, Ampicillin-resistant strain, read-out: MIC) of 16 µg/mL (≈ 16.5 µM), an MIC [27] of 2 µg/mL (≈ 2.06 µM) and an MIC (Escherichia coli EC14) of over 128 µg/mL. The MIC ([28]; agar-dilution, read-out: MIC) was 0.5 µg/mL (≈ 0.515 µM).
